Laboratory results reported in patent US20240132461A1, “FLAVONE DEAZA SPERMIDINE ANALOGUES AND THEIR USE TREATING CANCER” (FLORATEK PHARMA S.A., priority 2021, published 2024).
Structures can show the parent of a compound that is named as a salt.

Legend:
NCI-H1299 = test: Cell viability assay, non-small cell lung carcinoma cell line NCI-H1299; assay type: cell-based; conditions: Homo sapiens
Protocol: (§1) Antitumor activity of the compounds and doxorubicin as a positive control was assessed by using the CellTiter-Blue Cell Viability Assay (Promega, #G8082) or CellTiter-Glow® Luminescent Cell Viability assay (Promega # G7572) according to the manufacturer's instructions. The compounds were tested at 5 or 6 concentrations in half-log increments (highest concentration 30 μM-100 μM) in duplicate or triplicate well conditions.
(§2) Tumor cells were grown at 37° C. in a humidified atmosphere with 5% CO2 in RPMI 1640 or DMEM medium, supplemented with 10% (v/v) fetal calf serum and 50 μg/ml gentamicin for up to 20 passages, and were passaged once or twice weekly. Cells were harvested using TrypLE or PBS buffer containing 1 mM EDTA, and the percentage of viable cells is determined using a CASY Model TT cell counter (OMNI Life Science). Cells were harvested from exponential phase cultures, counted and plated in 96 well flat-bottom microtiter plates at a cell density depending on the cell line's growth rate (4,000-20,000 cells/well depending on the cell line's growth rate, up to 60,000 for hematological cancer cell lines) in RPMI 1640 or DMEM medium supplemented with 10% (v/v) fetal calf serum and 50 μg/ml gentamicin (140 μl/well). Cultures were incubated at 37° C. and 5% CO2 in a humidified atmosphere. After 24 h, 10 μl of test compounds or control medium are added, and left on the cells for another 72 h. Compounds were serially diluted in DMSO, transferred in cell culture medium, and added to the assay plates. The DMSO concentration was kept constant at <0.3% v/v across the assay plate. Viability of cells was quantified by the CellTiter-Blue® cell viability assay (Promega G8081) or CellTiter-Glow® Luminescent Cell Viability assay (Promega # G7572). Fluorescence (FU) was measured by using the EnSpire® multimode plate reader (Perkin Elmer) (excitation λ=570 nm, emission λ=600 nm) or luminescent detection of ATP in viable cells was used as parameter for proliferation. Luminescence was measured with the microplate luminometer (Promega or Perkin Elmer).
(§3) Sigmoidal concentration-response curves were fitted to the data points (test-versus-control, T/C values) obtained for each tumor model using 4 parameter non-linear curve fit (Charles River DRS Datawarehouse Software) or with GraphPad prism 5.02 software. IC50 values are reported as absolute IC50 values, being the concentration of test compound at the intersection of the concentration-response curves with T/C=50%

lung carcinoma cell = test: Cell viability assay, lung carcinoma cell lines (summary); assay type: cell-based; conditions: summary of Tables 7A-E; read-out: IC50s, lung carcinoma cell growth
Protocol: as §1, §2, §3

U-87MG = test: Cell viability assay, brain carcinoma cell line U-87MG; assay type: cell-based; conditions: Homo sapiens; U-87MG brain carcinoma cell line, 72 h, absolute IC50
Protocol: as §1, §2, §3

LN-229 = test: Cell viability assay, brain carcinoma cell line LN-229; assay type: cell-based; conditions: Homo sapiens; LN-229 brain carcinoma cell line, 72 h, absolute IC50
Protocol: as §1, §2, §3

U-251 = test: Cell viability assay, brain carcinoma cell line U-251; assay type: cell-based; conditions: Homo sapiens; U-251 brain carcinoma cell line, 72 h, absolute IC50
Protocol: as §1, §2, §3

MDA-MB-468 = test: Cell viability assay, breast carcinoma cell line MDA-MB-468; assay type: cell-based; conditions: Homo sapiens; MDA-MB-468 breast carcinoma cell line
Protocol: as §1
as §2, with “Elmer). […]” for “Elmer).”

HL-60 = test: Cell viability assay, acute promyelocytic leukemia cell line HL-60; assay type: cell-based; conditions: Homo sapiens; HL-60 acute promyelocytic leukemia cell line
Protocol: as §1, §2, §3

CALU-6 = test: Cell viability assay, non-small cell lung carcinoma cell line CALU-6; assay type: cell-based; conditions: Homo sapiens; CALU-6 non-small cell lung carcinoma cell line
Protocol: as §1, §2, §3

NCI-H1437 = test: Cell viability assay, non-small lung carcinoma cell line NCI-H1437; assay type: cell-based; conditions: Homo sapiens
Protocol: as §1, §2, §3

DMS114 = test: Cell viability assay, small cell lung carcinoma cell line DMS114; assay type: cell-based; conditions: Homo sapiens, DMS-114
Protocol: as §1
as §2, with “Elmer). […]” for “Elmer).”

NCI-H292 = test: Cell viability assay, mucoepidermoid pulmonary and adenocarcinoma, NCI-H292; assay type: cell-based; conditions: Homo sapiens
Protocol: as §1
as §2, with “Elmer). […]” for “Elmer).”

NCI-H441 = test: Cell viability assay, mucoepidermoid pulmonary and adenocarcinoma, NCI-H441; assay type: cell-based; conditions: Homo sapiens
Protocol: as §1
as §2, with “Elmer). […]” for “Elmer).”

brain cancer cell = test: Cell viability assay, brain cancer cell lines (summary); assay type: cell-based; conditions: summary of Tables 3A-D; read-out: IC50s, brain cancer cell growth
Protocol: as §1, §2, §3

breast cancer cell = test: Cell viability assay, breast cancer cell lines (summary); assay type: cell-based; conditions: summary of Tables 4A and 4B; read-out: IC50s, breast cancer cell growth
Protocol: as §1, §2, §3

SH-SY-5Y = test: Cell viability assay, brain carcinoma cell line SH-SY-5Y; assay type: cell-based; conditions: Homo sapiens, SH-SY5Y; SH-SY-5Y brain carcinoma cell line, 72 h, absolute IC50
Protocol: as §1
as §2, with “Elmer). […]” for “Elmer).”

A375 = test: Cell viability assay, melanoma cell line A375; assay type: cell-based; conditions: Homo sapiens, A-375
Protocol: as §1, §2, §3

melanoma cell lines = test: Cell viability assay, melanoma cell lines (summary); assay type: cell-based; conditions: summary of Tables 14A and 14B; read-out: IC50s, melanoma cell lines growth
Protocol: as §1, §2, §3

MeWo = test: Cell viability assay, melanoma cell line MeWo; assay type: cell-based; conditions: Homo sapiens
Protocol: as §1
as §2, with “Elmer). […]” for “Elmer).”

Panc-1 = test: Cell viability assay, pancreatic carcinoma cell line Panc-1; assay type: cell-based; conditions: Homo sapiens; Panc-1 pancreatic carcinoma cell line
Protocol: as §1, §2, §3

MIA-Pa-Ca-2 = test: Cell viability assay, pancreatic carcinoma cell line MIA-Pa-Ca-2; assay type: cell-based; conditions: Homo sapiens, MIA PaCa-2; MIA-Pa-Ca-2 pancreatic carcinoma cell line
Protocol: as §1, §2, §3

[1] = system: pancreatic carcinoma cell; test: Cell viability assay, pancreatic carcinoma cell lines (summary); assay type: cell-based; conditions: summary of Table 12; read-out: IC50s, pancreatic carcinoma cell growth
Protocol: as §1, §2, §3

H69AR = test: Cell viability assay, resistant small cell lung carcinoma cell line H69AR; assay type: cell-based; conditions: H69AR multiple drug resistant small cell lung carcinoma cell line
Protocol: as §1, §2, §3
The multiple drug resistant cell line H69AR obtained from ATCC, was established from NCI-H69 cells that were grown in the presence of increasing concentrations of adriamycin (doxorubicin). The H69AR cell line is approximately 50-fold resistant to adriamycin as compared to the parental NCI-H69 cell line. SND141, SND142, SND143, SND146, SND147 and SND148 inhibited the resistant cell line H69AR with IC50s below 5 μM, as presented in Table 8.

[2] = In vivo maximum tolerated dose in NOG mice; conditions: for tolerability at the highest dose administered: 8-10 mg/kg i.p., daily or every other day over 8 days; for MTD at 8 days: mouse, in vivo, ip, repeated i.p. administration, MTD not reached, read-out: maximum tolerated dose (MTD), estimated
Protocol: In order to evaluate the general toxicity of selected SND compounds in an animal model, a maximum tolerated dose (MTD) in NOG mice has been undertaken. Three mice per group were treated daily or every other day over 8 days at various doses between 5 mg/kg and 10 mg/kg. Administration of the compounds was i.p. A stock solution of the compounds (40 mg/ml in DMSO) was prepared and frozen at −20° C. in aliquots for each treatment. […] Body weights were measured before each treatment. Mice were further observed for 1 week after the last treatment.

HCT-116 = test: Cell viability assay, colon cancer cell line HCT-116; assay type: cell-based
Protocol: as §1
Tumor cells were grown at 37° C. in a humidified atmosphere with 5% CO2 in RPMI 1640 or DMEM medium, supplemented with 10% (v/v) fetal calf serum and 50 μg/ml gentamicin for up to 20 passages, and were passaged once or twice weekly. Cells were harvested using TrypLE or PBS buffer containing 1 mM EDTA, and the percentage of viable cells is determined using a CASY Model TT cell counter (OMNI Life Science). Cells were harvested from exponential phase cultures, counted and plated in 96 well flat-bottom microtiter plates at a cell density depending on the cell line's growth rate (4,000-20,000 cells/well depending on the cell line's growth rate, up to 60,000 for hematological cancer cell lines) in RPMI 1640 or DMEM medium supplemented with 10% (v/v) fetal calf serum and 50 μg/ml gentamicin (140 μl/well). […] Viability of cells was quantified by the CellTiter-Blue® cell viability assay (Promega G8081) or CellTiter-Glow® Luminescent Cell Viability assay (Promega # G7572). […]

## COc1c(O)ccc2c(=O)cc(-c3ccc(CN(C)CCN4CCCCC4)cc3)oc12 [SND167]
NCI-H1299
  IC50: 2.7 µM
Lung carcinoma cell
  IC50: < 20 µM

## CCN(CCCCc1ccc(-c2cc(=O)c3ccc4c(c3o2)OCO4)cc1)Cc1ccccc1OC [SND394]
U-87MG
  IC50: 7.6 µM
LN-229
  IC50: 2.9 µM
U-251
  IC50: 7.6 µM
MDA-MB-468
  IC50: 3.8 µM
HL-60
  IC50: 2.8 µM
CALU-6
  IC50: 8.9 µM
NCI-H1437
  IC50: 2.1 µM
DMS114
  IC50: 3.1 µM
NCI-H292
  IC50: 1.9 µM
NCI-H441
  IC50: 3.2 µM
Brain cancer cell
  IC50: < 10 µM
Breast cancer cell
  IC50: < 10 µM
Lung carcinoma cell
  IC50: < 20 µM

## CN(CCCCc1ccc(-c2cc(=O)c3ccc4c(c3o2)OCO4)cc1)C12CC3CC(CC(C3)C1)C2 [SND393]
U-87MG
  IC50: 7.1 µM
SH-SY-5Y
  IC50: 4.7 µM
U-251
  IC50: 6.8 µM
MDA-MB-468
  IC50: 3.2 µM
CALU-6
  IC50: 7 µM
A375
  IC50: 2.7 µM
Brain cancer cell
  IC50: < 10 µM
Breast cancer cell
  IC50: < 10 µM
Lung carcinoma cell
  IC50: < 20 µM
Melanoma cell lines
  IC50: < 10 µM

## NCCCNCCCCNCCCCc1ccc(-c2cc(=O)c3ccc4c(c3o2)OCO4)cc1 [SND392]
U-87MG
  IC50: 7.6 µM
LN-229
  IC50: 11 µM
SH-SY-5Y
  IC50: 3.7 µM
U-251
  IC50: 8.4 µM
HL-60
  IC50: 5.9 µM
CALU-6
  IC50: 7 µM
NCI-H1437
  IC50: 3.1 µM
DMS114
  IC50: 5.4 µM
NCI-H292
  IC50: 3.8 µM
NCI-H441
  IC50: 5.4 µM
MeWo
  IC50: 9.8 µM
Lung carcinoma cell
  IC50: < 20 µM
Melanoma cell lines
  IC50: < 10 µM

## O=c1cc(-c2ccc(CCCCN3CCCCC3)cc2)oc2c3c(ccc12)OCO3 [SND390]
LN-229
  IC50: 7 µM
NCI-H1437
  IC50: 10 µM

## COc1c(O)ccc2c(=O)cc(-c3ccc(CN4CCCCC4)cc3)oc12 [SND168]
NCI-H1299
  IC50: 3.7 µM
Lung carcinoma cell
  IC50: < 20 µM

## CN(CCCc1ccc(-c2cc(=O)c3ccc(O)c(O)c3o2)cc1)CCN1CCN(C)CC1 [SND173, 7,8-Dihydroxy-2-(4-(3-(methyl(2-(4-methylpiperazin-1-yl)ethyl)amino)propyl)phenyl)-4H-chromen-4-one trihydrochloride]
A375
  IC50: 10 µM
Melanoma cell lines
  IC50: < 10 µM

## CN(CCCCc1ccc(-c2cc(=O)c3ccc4c(c3o2)OCO4)cc1)CCCN1CCCCC1 [SND391]
U-87MG
  IC50: 5.1 µM
LN-229
  IC50: 2.8 µM
SH-SY-5Y
  IC50: 3 µM
U-251
  IC50: 3.9 µM
MDA-MB-468
  IC50: 1.2 µM
HL-60
  IC50: 2.4 µM
CALU-6
  IC50: 4 µM
NCI-H1437
  IC50: 1.4 µM
DMS114
  IC50: 1.1 µM
NCI-H292
  IC50: 0.98 µM
NCI-H441
  IC50: 1.2 µM
MeWo
  IC50: 1.9 µM
A375
  IC50: 1.3 µM
Brain cancer cell
  IC50: < 10 µM
Breast cancer cell
  IC50: < 10 µM
Lung carcinoma cell
  IC50: < 20 µM
Melanoma cell lines
  IC50: < 10 µM

## COc1c(O)ccc2c(=O)cc(-c3ccc(CCCCN(C)C)cc3)oc12 [SND141, 2-(4-(4-(dimethylamino)butyl)phenyl)-7-hydroxy-8-methoxy-4H-chromen-4-one]
Panc-1
  IC50: 3.91 µM
MIA-Pa-Ca-2
  IC50: 2.3 µM
[1]
  IC50: < 10 µM

## COc1c(O)ccc2c(=O)cc(-c3ccc(CCCCN4CCOCC4)cc3)oc12 [SND147, 7-hydroxy-8-methoxy-2-(4-(4-morpholinobutyl)phenyl)-4H-chromen-4-one]
CALU-6
  IC50: 12.2 µM
H69AR
  IC50: 2.6 µM
H69AR; Homo sapiens, H69AR
  IC50: < 5 µM
Panc-1
  IC50: 3.8 µM
MIA-Pa-Ca-2
  IC50: 2.02 µM
[2]
  tolerability at the highest dose administered: well tolerated
  MTD at 8 days: > 10 mg/kg
Lung carcinoma cell
  IC50: < 20 µM
[1]
  IC50: < 10 µM

## COc1c(O)ccc2c(=O)cc(-c3ccc(CCCCN4CCN(C)CC4)cc3)oc12 [SND142, 7-Hydroxy-8-methoxy-2-(4-(4-(4-methylpiperazin-1-yl)butyl)phenyl)-4H-chromen-4-one]
HL-60
  IC50: 3.48 µM
NCI-H1299
  IC50: 1 µM
CALU-6
  IC50: 1.7 µM
Panc-1
  IC50: 1.6 µM
MIA-Pa-Ca-2
  IC50: 1 µM
[2]
  tolerability at the highest dose administered: well tolerated
  MTD at 8 days: > 10 mg/kg
Lung carcinoma cell
  IC50: < 20 µM
[1]
  IC50: < 10 µM

## COc1c(O)ccc2c(=O)cc(-c3ccc(CN4CCCC4)cc3)oc12 [SND163]
NCI-H1299
  IC50: 5.8 µM

## O=c1cc(-c2ccc(CCCN3CCCCC3)cc2)oc2c(O)c(O)ccc12 [SND172]
HCT-116; HCT-116 colon cancer cell line
  IC50: 11.4 µM
HCT-116; Homo sapiens, HCT-116, HCT-116 colon cancer cell line
  IC50: < 20 µM
